Patent publication US20240139142A1, “METHOD FOR PREVENTING OR TREATING LIVER DISEASE” (priority 2022, published 2024)
Read-outs that look alike come from different tables or passages of the source. Values belong to the compound of their own block, whether it stands above or below them.

How the values were obtained:
[1] = tested on: liver hepatocellular carcinoma cell line Mahlavu; experiment: MTS analysis, growth inhibition (GI50); format: cell-based; conditions: read-out: GI50, Mahlavu liver hepatocellular carcinoma cell line
cancer cells = conditions: background statement; cited from earlier work
[2] = tested on: liver hepatocellular carcinoma cell line SNU-449; experiment: MTS analysis, growth inhibition (GI50); format: cell-based; conditions: for GI50: Homo sapiens
[3] = tested on: liver hepatocellular carcinoma cell line SNU-449; experiment: MTS assay cell growth, selectivity test; format: cell-based; conditions: SNU-449 vs THLE-2, MTS assay
[4] = tested on: Hepatitis B virus-induced ROS in Huh-7 cells; experiment: Removal of HBV-induced ROS, DHE fluorescence; format: cell-based, human; conditions: Huh-7 transfected with pGEM C12, 5 μM PCH1152, 10 μM NAC
Description: To examine the effect of PCH1152, NAC or the combination thereof on removing HBV-induced ROS, the Huh-7 cells were remained untreated, or treated with 5 μM PCH1152, 10 μM NAC or 5 μM PCH 1152 plus 10 μM NAC. The ROS was examined by DHE fluorescence, and the difference between each group was compared by Tukey's Multiple Comparison Test.

[5] = tested on: SNU-449 liver hepatocellular carcinoma cell line; experiment: Western blot of apoptosis markers (cleaved caspase 8, cleaved PARP); format: cell-based; conditions: 0.3 μM, 0, 24, 48 and 72 hours
Description: SNU-449 liver hepatocellular carcinoma cell line was treated by 0.3 μM isothiocyanate structural modified compounds P1130 and PCH1152, and natural isothiocyanate compound PEITC, and the control group was treated by DSMO. After extracting the proteins in the cells at different time points, such as 0, 24, 48 and 72 hours, analysis and comparison were performed by using western blot. […] The results represent that the two structural modified compounds described above effectively promoted the apoptosis of the liver hepatocellular carcinoma cells (FIG. 1).

[6] = tested on: SNU-449 liver hepatocellular carcinoma cell line; experiment: Expression of ABCC2, Twist and Mcl-1 after treatment; format: cell-based; conditions: 2.5 μM, 64 hours
Text: (§1) The process of trans-differentiating epithelial cells into motile mesenchymal cells is called epithelial-mesenchymal transition (EMT). EMT is indispensable in development, wound healing and stem cell behavior, and may induce fibrosis and carcinogenesis pathologically. In addition, EMT plays an important role in liver fibrosis, liver cirrhosis and liver hepatocellular carcinoma. […] Moreover, EMT may increase the anti-apoptosis effect, which will result in the development of drug resistance in cancer treatment, and induce the development of stemness of the cancer cells, as well as increase the number of cancer stem cells. The cancer stem cell is one of the important factors in the progression, recurrence, metastasis and drug resistance of the cancer. There is an evidence that in the samples of the liver hepatocellular carcinoma patients with poor prognosis, the overexpressions of Twist and Snail were observed. […] The results above represent that isothiocyanate structural modified compound of the present disclosure may prevent liver carcinogenesis and the growth, invasion, metastasis, progression and recurrence of liver hepatocellular carcinoma via inhibiting epithelial-mesenchymal transition, anti-apoptosis and/or inhibiting drug resistance.

[7] = tested on: Mahlavu liver hepatocellular carcinoma cell line; experiment: as above; format: cell-based; conditions: 2.5 μM, 64 hours
Text: as §1

[8] = tested on: human normal liver cell line THLE-2; experiment: Western blot, apoptosis and ABCC2/Mcl-1/Twist expression; format: cell-based; conditions: low concentration
[9] = tested on: mouse xenograft model of liver hepatocellular carcinoma; experiment: Safety test, median lethal dose (LD50), intravenous injection; format: in vivo
Description: (§2) The mouse xenograft model of liver hepatocellular carcinoma was administered with different concentrations of PCH1152 or P1130 via intravenous injection, and the median lethal dose (LD50) was calculated by the number of death and dosage.

[10] = as above; format: in vivo; conditions: in vivo, mouse
Description: as §2

[11] = tested on: SNU-449 liver hepatocellular carcinoma cell line; experiment: Western blot, apoptosis and ABCC2/Mcl-1/Twist expression; format: cell-based; conditions: low concentration
[12] = tested on: liver hepatocellular carcinoma cell line with Nexavar drug resistance; experiment: Protein expression and apoptosis in drug-resistant cell line; format: cell-based
Text: WT: wild-type liver hepatocellular carcinoma cell line. R: Nexavar-drug resistance-liver hepatocellular carcinoma cell line.
After treating liver hepatocellular carcinoma cell line with Nexavar drug resistance by PCH1130 or PCH1152, the expressions of molecules such as USP22, ABCC1, ABCC2 and Twist in liver hepatocellular carcinoma may be decreased, and the expressions of cleaved Caspase-8 and PARP may be increased, which induced the apoptosis of liver hepatocellular carcinoma cells.

[13] = tested on: Sorafenib-drug resistance-liver hepatocellular carcinoma cell line SNU-499; experiment: MTS assay cell viability IC50; format: cell-based
Description: (§3) In order to look for the biomarkers of drug resistance for liver hepatocellular carcinoma, liver hepatocellular carcinoma cell line Hep3B and SNU-449 were continually cultured in an environment with Sorafenib, and the concentration of Sorafenib was increased gradually. Specifically, broth containing 3.5 μM to 10.8 μM Sorafenib was used as a starting concentration (compared to the IC50 of the cell), and the concentration increased 0.5 μM every week until the Sorafenib-drug resistance-liver hepatocellular carcinoma cell line was established. […] With the same experimental procedures as described above, the Sorafenib-drug resistance-cell line was also cultured in a cell broth containing Regorafenib, and the cell viability was tested by MTS assay.

[14] = tested on: Sorafenib-drug resistance-liver hepatocellular carcinoma cell line Hep3B; experiment: MTS assay cell viability IC50; format: cell-based; conditions: Homo sapiens
Description: as §3

[15] = tested on: wild-type liver hepatocellular carcinoma cell line Hep3B; experiment: MTS assay cell viability IC50; format: cell-based; conditions: Homo sapiens
Description: as §3

[16] = tested on: wild-type liver hepatocellular carcinoma cell line SNU-499; experiment: MTS assay cell viability IC50; format: cell-based
[17] = SNU-449, MTS analysis, read-out: GI50, SNU-449 liver hepatocellular carcinoma cell line
[18] = read-out: The IC50 of Regorafenib, wild-type liver hepatocellular carcinoma cell line
[19] = read-out: The IC50 of Sorafenib, wild-type liver hepatocellular carcinoma cell line

SMILES: S=C=NCc1ccccc1 [BITC, benzyl isothiocyanate]
GI50 ([1]; MTS analysis): 3.84 µM
dose needed to have the inhibiting effect on cancer cells (cancer cells): ~10 mM
GI50 [2, 17]: 9.58 µM

SMILES: COc1cccc2c1C(=O)c1c(O)c3c(c(O)c1C2=O)C[C@@](O)(C(=O)CO)C[C@@H]3O[C@H]1C[C@H](N)[C@H](O)[C@H](C)O1 [Doxorubicin, reference compound]
selectivity between liver hepatocellular carcinoma cell and normal liver cell [3]: did not have selectivity

SMILES: CC(=O)N[C@@H](CS)C(=O)O [NAC, N-acetylcysteine, reference compound]
HBV-induced ROS increasement [4]: significantly reduce

SMILES: COc1ccc(CCN=C=S)cc1 [P1130]
expression levels of cleaved caspase 8 and cleaved PARP [5]: significantly increased
expressions of ABCC2, Twist and Mcl-1 [6]: inhibition
expressions of ABCC2, Twist and Mcl-1 [7]: inhibition
apoptosis promotion and inhibition of ABCC2, Mcl-1, Twist in human normal liver cell line [8]: no such effect
toxicity relative to existing anticancer drug, e.g. Taxotere [9]: comparable
LD50 [10]: 100 to 300 mg/kg
GI50 [1]: 1.52 µM
apoptosis of liver hepatocellular carcinoma cell line [11]: promote apoptosis
expressions of ABCC2, Mcl-1 and Twist [11]: inhibit the expressions
effect on drug resistance in liver hepatocellular carcinoma [12]: reversing the drug resistance
expressions of USP22, ABCC1, ABCC2 and Twist [12]: decreased
expressions of cleaved Caspase-8 and PARP [12]: increased
GI50 ([2]; SNU-449, read-out: GI50, SNU-449 liver hepatocellular carcinoma cell line): 0.64 µM
increase of the ability of inhibiting the growth of the liver hepatocellular carcinoma cell line ([2]; compared to natural isothiocyanate compounds BITC or PEITC): 12 times

SMILES: S=C=NCCc1ccccc1 [PEITC, phenylethyl isothiocyanate, reference compound]
expression levels of cleaved caspase 8 and cleaved PARP [5]: only slightly increased
GI50 ([1]; MTS analysis): 9.59 µM
GI50 [2, 17]: 7.58 µM

IC50 ([13]; SNU-499, Sorafenib-resistant, read-out: The IC50 of Regorafenib, drug resistance-liver hepatocellular carcinoma cell line): 14.5 µM
IC50 ([14]; Sorafenib-resistant, read-out: The IC50 of Regorafenib, drug resistance-liver hepatocellular carcinoma cell line): 8.33 µM
IC50 [15, 18]: 4.28 µM
IC50 [16, 18]: 3.66 µM
GI50 ([1]; MTS analysis): 5 µM
GI50 [2, 17]: 4.54 µM
SMILES: CNC(=O)c1cc(Oc2ccc(NC(=O)Nc3ccc(Cl)c(C(F)(F)F)c3)c(F)c2)ccn1 [Regorafenib]

IC50 ([13]; SNU-499, read-out: The IC50 of Sorafenib, drug resistance-liver hepatocellular carcinoma cell line): 14.2 µM
IC50 ([14]; read-out: The IC50 of Sorafenib, drug resistance-liver hepatocellular carcinoma cell line): 10.9 µM
IC50 [15, 19]: 3.8 µM
IC50 [16, 19]: 7.89 µM
GI50 ([1]; MTS analysis): 3.58 µM
GI50 [2, 17]: 2.34 µM
SMILES: CNC(=O)c1cc(Oc2ccc(NC(=O)Nc3ccc(Cl)c(C(F)(F)F)c3)cc2)ccn1 [Sorafenib]
